Measurements published in PMC3906059, “Activation and Inhibition of TMEM16A Calcium-Activated Chloride Channels” (PLoS ONE, 2014).
Values joined by “and” are separate entries in the source; they are usually repeats but may differ in a detail not shown here. Equal values may be shown once. “Also recorded” adds a separate entry of the source.

Tests used:
TMEM16A (ANO1) [1] = biological target: T1, TMEM16A (ANO1) (Mus musculus, UniProt Q8BHY3); assay: Anion permeability of the ANO1 pore, Erev under bi-ionic conditions; format: cell-based; conditions: for permeability ratio PX/PCl: Ca^2+-activated current, calculated from Erev after junction potential correction; for zero current potential of I–V curve: example ramp −80 to +80 mV, [Ca^2+] = 20 µM, intracellular salt 140 mM (NaHCO3 130 mM + 10 mM NaCl)
T1 construct: We subcloned the coding region of the cDNA into pEGFP-N3 vector; expressed in transfected cells; host or cells: HEK293 cells
T1 sequence (Q8BHY3 1-956 isoform Q8BHY3-2): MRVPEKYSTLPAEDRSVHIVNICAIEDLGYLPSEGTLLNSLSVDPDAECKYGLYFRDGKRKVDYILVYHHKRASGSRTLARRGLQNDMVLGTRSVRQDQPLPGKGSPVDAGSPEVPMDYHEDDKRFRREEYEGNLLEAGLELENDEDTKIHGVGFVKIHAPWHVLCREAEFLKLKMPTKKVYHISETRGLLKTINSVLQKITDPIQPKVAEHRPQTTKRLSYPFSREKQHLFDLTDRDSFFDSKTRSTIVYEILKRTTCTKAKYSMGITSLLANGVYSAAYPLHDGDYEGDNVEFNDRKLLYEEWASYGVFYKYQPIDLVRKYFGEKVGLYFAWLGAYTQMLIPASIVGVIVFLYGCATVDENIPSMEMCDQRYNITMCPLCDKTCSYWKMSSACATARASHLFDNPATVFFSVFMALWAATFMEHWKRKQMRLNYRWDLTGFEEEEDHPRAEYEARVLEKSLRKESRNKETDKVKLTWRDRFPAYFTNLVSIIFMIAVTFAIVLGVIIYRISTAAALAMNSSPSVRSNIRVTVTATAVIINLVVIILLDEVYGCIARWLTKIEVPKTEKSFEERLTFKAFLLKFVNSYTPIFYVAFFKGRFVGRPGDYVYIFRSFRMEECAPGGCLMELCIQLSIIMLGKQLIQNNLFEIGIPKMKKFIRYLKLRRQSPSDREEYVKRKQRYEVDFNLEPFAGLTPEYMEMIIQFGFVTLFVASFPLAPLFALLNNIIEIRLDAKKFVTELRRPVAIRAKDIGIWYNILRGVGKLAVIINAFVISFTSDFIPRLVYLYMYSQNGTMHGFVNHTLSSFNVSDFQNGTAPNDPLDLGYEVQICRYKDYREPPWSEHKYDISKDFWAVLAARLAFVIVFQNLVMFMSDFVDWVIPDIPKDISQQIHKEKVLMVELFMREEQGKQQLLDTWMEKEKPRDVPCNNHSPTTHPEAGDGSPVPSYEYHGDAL
Text: (§1) The mouse TMEM16A cDNA (NCBI reference sequence: NM_001242349.1) encoding ANO1 CaCC was a generous gift from Dr. Lily Jan. We subcloned the coding region of the cDNA into pEGFP-N3 vector (Clontech Laboratories, Inc.), resulting in a construct in which an enhanced green fluorescent protein (eGFP) was attached to the C-terminus of the ANO1 protein. The sequence was confirmed by commercially-available DNA sequencing service. This eGFP-attached ANO1 cDNA construct was used for channel expression throughout the study. The cDNA was transfected into human embryonic kidney (HEK) 293 cells using lipofectamine transfection methods, [42], [43]. A fluorescent light source and a GFP filter set (Chroma Technology Co.) in the DM IRB inverted microscope (Leica Microsystems) were used to identify transfected cells expressing channel proteins. Electrophysiological experiments were performed ∼24 to 72 hours after transfection.
The anion permeability of the ANO1 pore was examined under bi-ionic conditions in which the extracellular solution contained 140 mM NaCl (the zero-Ca^2+ solution). The intracellular solution contained 140 mM sodium salts of various anions with the exception of the HCO3 ^− experiment in which the solution contained 130 mM NaHCO3 and 10 mM NaCl. In all intracellular solutions for the bi-ionic experiments, 0.1 mM EGTA and 0.12 mM total Ca^2+ or Sr^2+ were added to the solution to activate the ANO1 channel (Free [Ca^2+] or [Sr^2+] were saturating concentrations). Erev of the open channel was measured in two ways. First, under voltage-clamp configuration, a 3-sec voltage ramp from −80 mV to +80 mV was applied and the Erev of the leak-subtracted I-V curve was then determined (see Fig. 5 A & B). The second method employed the current-clamp (I = 0) mode in which the patch was exposed to divalent cations throughout the recording (Fig. 5 C and Fig. 6 A & C). When the intracellular solution contained the same concentration of Cl^− as that in the extracellular side, the recorded voltage (EI = 0) was normally close to 0 mV. When the intracellular solution was replaced by the one containing other anions, the value of EI = 0 changed to a new value corresponding to the Erev of the new ionic condition. It is important to point out that the measurement of Erev can be imprecise if the amplitude of the ANO1 current is not within a proper range. Therefore, in permeability ratio measurements we only used the data obtained from patches with a maximal current in the range of 100 pA–1000 pA at +40 mV. All the presented Erev values (and the recording traces for measuring Erev) are not corrected for junction potential difference between solutions because the junction potentials are relatively small. However, the reported permeability ratios were calculated based on the junction potential-corrected Erev. The correction for the junction potential results in very small changes in the calculated permeability ratios.
The permeability ratios of various anions versus Cl^− (PX/PCl, where X represents various anions) were calculated using the Erev obtained from bi-ionic experiments according to the following equation (eq. 3), PX/PCl = exp[Erev/(RT/F)], where R, T, and F are the gas constant, absolute temperature, and Faraday constant, respectively. Comparing the difference between Erev’s of the Ca^2+- and Sr^2+-activated current was performed using the pair t test at the significant level of 0.05.

TMEM16A (ANO1) [2] = biological target: T1, TMEM16A (ANO1); assay: Activation of ANO1 current by divalent cations, excised inside-out patch with fast solution exchange; format: cell-based; conditions: for maximal ANO1 current activated by saturating divalent cation compared with Is induced by saturating [Ca^2+]: Is induced by 20 µM Ca^2+, ±40 mV; for Hill coefficient (n) of dose-response activation curve / EC50: values covering +40 and −40 mV; for EC50: read-out: K1/2 of ANO1 activation
Text: as §1
All chemicals were reagent grade. Regular salts (such as NaCl, NaOH, CaCl2, SrCl2, BaCl2, MgCl2 or sodium salts of various anions) were purchased from Fisher Chemicals (Fair Lawn, NJ), J. T. Baker (Phillipsburg, NJ) or Sigma Chemicals Co. (St. Louis, MO). EGTA, HEPES, and NFA were from Sigma Chemicals Co. Excised inside-out patch-clamp recordings were performed throughout the study. The extracellular (pipette) solution in all experiments contained: 140 mM NaCl, 10 mM HEPES, 0.1 mM EGTA, pH = 7.4. The regular intracellular solution contained 10 mM HEPES and 140 mM sodium salt of Cl^− or other anions. Various concentrations of divalent cations were made by adding certain total concentrations of divalent cations (Cl^− salts) into the solution containing a defined concentration of EGTA. We defined the pipette solution as the “zero-Ca^2+” solution. A solution containing a saturating [Ca^2+] was made by adding 0.12 mM total [Ca^2+] into the aforementioned zero-Ca^2+ solution, resulting in a solution containing ∼20 µM free [Ca^2+]. For making non-saturating [Ca^2+] solutions, the solutions included 1 mM EGTA. To make solutions containing Sr^2+ and Ba^2+, only 0.1 mM EGTA was used. The pH of all solutions was adjusted to 7.4.
Because of weak Mg^2+-EGTA binding, we referred the total [Mg^2+] as the free [Mg^2+]. The free [Ca^2+], [Sr^2+], and [Ba^2+] were calculated using the MaxChelator program (Ver1.2) kindly provided by Chris Patton from the Stanford University. This program was developed based on the binding constants available in the National Institute of Standard and Technology (NIST) between EGTA and these three divalent cations. Table S1, Table S2, and Table S3 list respectively the calculated free [Ca^2+], [Sr^2+], and [Ba^2+] used in this study. All added divalent cations were Cl^− salts. […] For example, in a solution containing 5 mM, 10 mM or 30 mM MgCl2, only 130 mM, 120 mM or 80 mM of NaCl, respectively, were added to the solution.
The patch-clamp recording pipettes were fabricated from borosilicate glass capillaries (World Precision Instruments) using PP830 electrode puller (Narishige International). When filled with the pipette solution, the electrode resistance was ∼1.5–3 MΩ. The experiments were carried out at room temperature (20–23°C) using the Axopatch 200B amplifier controlled by the Digidata I/O converter and the pClamp9 software (Axon Instruments/Molecular Devices).
Solution exchange was achieved using the SF-77 solution exchanger (Warner Instruments). After the excised inside-out patch mode was established, the tip of the patch pipette was positioned at the exit of the solution-delivery pipes of the SF-77 solution exchanger. The switch of solution pipes was controlled by a digital signal delivered from the Digidata 1320 digitizing board. […]

TMEM16A (ANO1) [3] = biological target: T1, TMEM16A (ANO1); assay: Mg^2+ inhibition of Ca^2+-induced ANO1 current and shift of the Ca^2+-activation curve (Schild plot); format: cell-based
Text: as §1
All chemicals were reagent grade. Regular salts (such as NaCl, NaOH, CaCl2, SrCl2, BaCl2, MgCl2 or sodium salts of various anions) were purchased from Fisher Chemicals (Fair Lawn, NJ), J. T. Baker (Phillipsburg, NJ) or Sigma Chemicals Co. (St. Louis, MO). EGTA, HEPES, and NFA were from Sigma Chemicals Co. Excised inside-out patch-clamp recordings were performed throughout the study. The extracellular (pipette) solution in all experiments contained: 140 mM NaCl, 10 mM HEPES, 0.1 mM EGTA, pH = 7.4. The regular intracellular solution contained 10 mM HEPES and 140 mM sodium salt of Cl^− or other anions. Various concentrations of divalent cations were made by adding certain total concentrations of divalent cations (Cl^− salts) into the solution containing a defined concentration of EGTA. We defined the pipette solution as the “zero-Ca^2+” solution. A solution containing a saturating [Ca^2+] was made by adding 0.12 mM total [Ca^2+] into the aforementioned zero-Ca^2+ solution, resulting in a solution containing ∼20 µM free [Ca^2+]. For making non-saturating [Ca^2+] solutions, the solutions included 1 mM EGTA. […]
Because of weak Mg^2+-EGTA binding, we referred the total [Mg^2+] as the free [Mg^2+]. The free [Ca^2+], [Sr^2+], and [Ba^2+] were calculated using the MaxChelator program (Ver1.2) kindly provided by Chris Patton from the Stanford University. […] Table S1, Table S2, and Table S3 list respectively the calculated free [Ca^2+], [Sr^2+], and [Ba^2+] used in this study. […]
Solution exchange was achieved using the SF-77 solution exchanger (Warner Instruments). […] The recorded current is normally time-independent following fast solution exchange, but on infrequent occasions there is a slow increase of current. Therefore, we measured the current amplitude at the end of the solution exchange when the current amplitude reaches a steady-state maximal value. […]

CaCC of Xenopus oocytes = test system: CaCC of Xenopus oocytes; parameters: method as in PMID 11279188; conditions: cited from earlier work
[4] = Ca^2+-activated current (20 µM), 140 mM extracellular NaCl, anion as intracellular sodium salt 140 mM (HCO3: 130 mM NaHCO3 + 10 mM NaCl), without junction potential correction, averaged
[5] = current activated by 20 µM Sr^2+, current clamp (I = 0), without correcting for junction potential
[6] = Schild plot from K1/2,Ca in 0, 2, 5 and 10 mM Mg^2+

Row | Compound | maximal ANO1 current activated by saturating divalent cation compared with Is induced by saturating [Ca^2+] (TMEM16A (ANO1) [2]) | Hill coefficient (n) of dose-response activation curve (TMEM16A (ANO1) [2]) | EC50 (TMEM16A (ANO1) [2]) | Erev (bi-ionic potential) (TMEM16A (ANO1) [1]; [4]) | permeability ratio PX/PCl (TMEM16A (ANO1) [1]) | Erev (bi-ionic potential) (TMEM16A (ANO1) [1]; [5]) | zero current potential of I–V curve (TMEM16A (ANO1) [1]; 140 mM extracellular NaCl) | other results
1 | [Cl-].[Cl-].[Sr+2] [Sr^2+] | can activate the same maximal current; also recorded: activated the channel to the same maximal current level | 2–2.6 and ~2 | 5 to 10 µM and ~5 µM | – | – | – | – | difference of Erev between channels activated by Sr^2+ and Ca^2+ (TMEM16A (ANO1) [1]): 1–2 mV
2 | [Ba+2].[Cl-].[Cl-] [Ba^2+] | can activate the same maximal current; also recorded: activated the channel to the same maximal current level | 1.1–1.4 and 1–1.5 | 130 to 230 µM and 100 to 200 µM | – | – | – | – | fraction of maximal current activated (TMEM16A (ANO1) [2]; 404 µM [Ba^2+]): 70–80%
3 | O=[N+]([O-])[O-].[Na+] [NO3 ^−] | – | – | – | 32.9±1.1 mV | ~3.5 | 31.3±0.5 mV | +33 mV | –
4 | [Mg+2] [Mg^2+] | – | – | – | – | – | – | – | IC50 (TMEM16A (ANO1) [3]; ANO1 current induced by 0.666 µM free Ca^2+, fit to eq. 2, read-out: apparent half-inhibition concentration): 5400 µM; [Mg^2+] that increases K1/2,Ca 2-fold (Schild plot) (TMEM16A (ANO1) [3]; [6]): ~2.5 mM; pMg at crossing of the horizontal axis of the Schild plot (TMEM16A (ANO1) [3]; [6]): ~2.6; Mg^2+ inhibition of ANO1 current activated by saturating [Ca^2+] (TMEM16A (ANO1) [3]; saturating [Ca^2+], 5 mM Mg^2+ (Fig. 4 C)): not observed; also recorded: not inhibited; ANO1 activation by Mg^2+ (TMEM16A (ANO1) [2]; up to 30 mM [Mg^2+], intracellular side): no ANO1 activation was detected; also recorded: unable to detect ANO1 current
5 | O=S(=O)(O)c1cc(N=C=S)ccc1C=Cc1ccc(N=C=S)cc1S(=O)(=O)O [DIDS] | – | – | – | – | – | – | – | voltage dependence of inhibition (CaCC of Xenopus oocytes): voltage dependent
6 | N#C[S-].[Na+] [SCN^−] | – | – | – | 62.0±2.4 mV | ~11 | 59.4±0.8 mV | +64 mV | Erev (bi-ionic potential) (TMEM16A (ANO1) [1]; Ca^2+-activated current (20 µM), 140 mM extracellular NaCl, anion as intracellular sodium salt 140 mM (HCO3: 130 mM NaHCO3 + 10 mM NaCl), without junction potential correction, averaged, listed as SCN^–): ~+60 mV; voltage shift induced by SCN^− in Sr^2+ smaller than that in Ca^2+ by (TMEM16A (ANO1) [1]; same patch, 140 mM intracellular NaSCN, 4 patches): ~1 mV
